Laboratory results from PubChem BioAssay AID330 (DTP/NCI, 2004).
“And” between values parts separate entries of the source, which are not always exact repeats. Identical values can stand only once. Toxic doses and inconclusive results are not listed.

System: P388 leukemia ip, CD2F1 mice, survival T/C
Assay: NCI In Vivo Anticancer Drug Screen. Data for tumor model P388 Leukemia (intraperitoneal) in CD2F1 (CDF1) mice
Settings: endpoint: median survival time, higher = longer survival
Procedure, shortened: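 Mice carrying the transplanted tumor received test compound or vehicle. Survival was recorded in each group, and the value is the treated-group measurement divided by that of the vehicle-treated control group.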

[1] = dose: 100.0 mg/kg/injection, schedule: Q04DX002 (ip), vehicle: saline with Tween-80
[2] = dose: 200.0 mg/kg/injection, schedule: Q04DX002 (ip), vehicle: saline with Tween-80
[3] = dose: 25.0 mg/kg/injection, schedule: Q01DX009 (ip), vehicle: saline with Tween-80
[4] = dose: 50.0 mg/kg/injection, schedule: Q01DX009 (ip), vehicle: saline with Tween-80
[5] = dose: 100.0 mg/kg/injection, schedule: Q01DX009 (ip), vehicle: saline with Tween-80
[6] = dose: 50.0 mg/kg/injection, schedule: Q01DX005 (ip), vehicle: saline with Tween-80
[7] = dose: 100.0 mg/kg/injection, schedule: Q01DX005 (ip), vehicle: saline with Tween-80

c1ccc2c(NCCCCCCNc3c4ccccc4nc4ccccc34)c3ccccc3nc2c1
T/C (dose: 0.62 mg/kg/injection, schedule: Q## X009 (ip), vehicle: lactic acid): 124 % of control | T/C (dose: 1.25 mg/kg/injection, schedule: Q01DX009 (ip), vehicle: Klucel (hydroxypropylcellulose) (HPC)): 119 % of control | T/C (dose: 1.25 mg/kg/injection, schedule: Q01DX009 (ip), vehicle: water): 121 % of control | T/C (dose: 1.25 mg/kg/injection, schedule: Q01DX009 (oral), vehicle: Klucel (hydroxypropylcellulose) (HPC)): 99 % of control | T/C (dose: 2.16 mg/kg/injection, schedule: Q01DX009 (ip), vehicle: Klucel (hydroxypropylcellulose) (HPC)): 155 % of control | T/C (dose: 2.16 mg/kg/injection, schedule: Q01DX009 (ip), vehicle: lactic acid): 156 % of control | T/C (dose: 2.5 mg/kg/injection, schedule: Q01DX009 (oral), vehicle: Klucel (hydroxypropylcellulose) (HPC)): 106 % of control | T/C (dose: 2.5 mg/kg/injection, schedule: Q## X009 (ip), vehicle: lactic acid): 152 % of control | T/C (dose: 2.59 mg/kg/injection, schedule: Q01DX009 (ip), vehicle: lactic acid): 150 % of control | T/C (dose: 3.6 mg/kg/injection, schedule: Q01DX009 (ip), vehicle: Klucel (hydroxypropylcellulose) (HPC)): 163 % of control | T/C (dose: 3.6 mg/kg/injection, schedule: Q01DX009 (ip), vehicle: lactic acid): 154 % of control | T/C (dose: 4.32 mg/kg/injection, schedule: Q01DX009 (ip), vehicle: lactic acid): 150 % of control | T/C (dose: 5.0 mg/kg/injection, schedule: Q01DX009 (oral), vehicle: Klucel (hydroxypropylcellulose) (HPC)): 93 % of control | T/C (dose: 5.4 mg/kg/injection, schedule: Q01DX009 (ip), vehicle: other): 156 % of control | T/C (dose: 6.0 mg/kg/injection, schedule: Q01DX009 (ip), vehicle: Klucel (hydroxypropylcellulose) (HPC)): 180 % of control | T/C (dose: 7.2 mg/kg/injection, schedule: Q01DX009 (ip), vehicle: Klucel (hydroxypropylcellulose) (HPC)): 157 % of control | T/C (dose: 7.2 mg/kg/injection, schedule: Q01DX009 (ip), vehicle: lactic acid): 150 % of control | T/C (dose: 7.2 mg/kg/injection, schedule: Q04DX003 (ip), vehicle: other): 118 % of control | T/C (dose: 7.78 mg/kg/injection, schedule: Q01DX003 (ip), vehicle: water): 101 % of control | T/C (dose: 7.78 mg/kg/injection, schedule: Q01DX009 (oral), vehicle: Klucel (hydroxypropylcellulose) (HPC)): 101 % of control | T/C (dose: 7.78 mg/kg/injection, schedule: Q01DX009 (oral), vehicle: lactic acid): 111 % of control | T/C (dose: 9.0 mg/kg/injection, schedule: Q01DX009 (ip), vehicle: other): 165 % of control | T/C (dose: 10.0 mg/kg/injection, schedule: Q01DX009 (ip), vehicle: Klucel (hydroxypropylcellulose) (HPC)): 173 % of control | T/C (dose: 10.0 mg/kg/injection, schedule: Q01DX009 (ip), vehicle: other): 150 % of control | T/C (dose: 10.0 mg/kg/injection, schedule: Q01DX009 (ip), vehicle: water): 150 % of control | T/C (dose: 10.0 mg/kg/injection, schedule: Q01DX009 (oral), vehicle: Klucel (hydroxypropylcellulose) (HPC)): 97 % of control | T/C (dose: 12.0 mg/kg/injection, schedule: Q01DX009 (ip), vehicle: Klucel (hydroxypropylcellulose) (HPC)): 154 % of control | T/C (dose: 12.0 mg/kg/injection, schedule: Q04DX003 (ip), vehicle: other): 95 % of control | T/C (dose: 13.0 mg/kg/injection, schedule: Q01DX003 (ip), vehicle: water): 101 % of control | T/C (dose: 13.0 mg/kg/injection, schedule: Q01DX009 (oral), vehicle: Klucel (hydroxypropylcellulose) (HPC)): 100 % of control | T/C (dose: 13.0 mg/kg/injection, schedule: Q01DX009 (oral), vehicle: lactic acid): 104 % of control | T/C (dose: 15.0 mg/kg/injection, schedule: Q01DX009 (ip), vehicle: other): 168 % of control | T/C (dose: 20.0 mg/kg/injection, schedule: Q01DX009 (oral), vehicle: Klucel (hydroxypropylcellulose) (HPC)): 108 % of control | T/C (dose: 21.6 mg/kg/injection, schedule: Q01DX009 (oral), vehicle: Klucel (hydroxypropylcellulose) (HPC)): 100 % of control | T/C (dose: 21.6 mg/kg/injection, schedule: Q01DX009 (oral), vehicle: lactic acid): 96 % of control | T/C (dose: 36.0 mg/kg/injection, schedule: Q01DX009 (oral), vehicle: Klucel (hydroxypropylcellulose) (HPC)): 104 % of control | T/C (dose: 36.0 mg/kg/injection, schedule: Q01DX009 (oral), vehicle: lactic acid): 96 % of control | T/C (dose: 40.0 mg/kg/injection, schedule: Q01DX009 (oral), vehicle: Klucel (hydroxypropylcellulose) (HPC)): 93 % of control | T/C (dose: 60.0 mg/kg/injection, schedule: Q01DX009 (oral), vehicle: Klucel (hydroxypropylcellulose) (HPC)): 96 % of control | T/C (dose: 60.0 mg/kg/injection, schedule: Q01DX009 (oral), vehicle: lactic acid): 93 % of control | T/C (dose: 80.0 mg/kg/injection, schedule: Q01DX009 (oral), vehicle: Klucel (hydroxypropylcellulose) (HPC)): 97 % of control | T/C (dose: 100.0 mg/kg/injection, schedule: Q01DX009 (oral), vehicle: Klucel (hydroxypropylcellulose) (HPC)): 95 % of control | T/C (dose: 100.0 mg/kg/injection, schedule: Q01DX009 (oral), vehicle: lactic acid): 99 % of control | T/C (dose: 167.0 mg/kg/injection, schedule: Q01DX009 (oral), vehicle: Klucel (hydroxypropylcellulose) (HPC)): 108 % of control | T/C (dose: 167.0 mg/kg/injection, schedule: Q01DX009 (oral), vehicle: lactic acid): 103 % of control

CC1C(=O)OC2C1CCC1(C)CC(Br)C(=O)C(C)C21 (centres undefined)
T/C [1]: 102 % of control | T/C [2]: 102 % of control and 100 % of control | T/C (dose: 400.0 mg/kg/injection, schedule: Q04DX002 (ip), vehicle: saline with Tween-80): 104 % of control and 101 % of control

Cc1ccc2[nH]c(=S)[nH]c2c1
T/C [3]: 95 % of control | T/C [4]: 94 % of control | T/C [5]: 96 % of control | T/C (dose: 200.0 mg/kg/injection, schedule: Q01DX009 (ip), vehicle: saline with Tween-80): 93 % of control

CC1=C2C(=O)[C@H]3[C@@H](CC=C4C[C@@H](O)CC[C@@]43C)[C@@H]2CC[C@]12O[C@@H]1C[C@H](C)CN[C@H]1[C@H]2C
T/C [3]: 98 % of control | T/C [4]: 92 % of control | T/C [5]: 92 % of control

C=CCCC(OC(C)C)OC(C)C
T/C (dose: 50.0 mg/kg/injection, schedule: Q01DX009 (ip), vehicle: saline): 98 % of control | T/C (dose: 100.0 mg/kg/injection, schedule: Q01DX009 (ip), vehicle: saline): 99 % of control | T/C (dose: 200.0 mg/kg/injection, schedule: Q01DX009 (ip), vehicle: saline): 108 % of control

Nc1nn(-c2cccc(C(F)(F)F)c2)c2cccc[n+]12
T/C (dose: 12.5 mg/kg/injection, schedule: Q01DX009 (ip), vehicle: saline with Tween-80): 100 % of control | T/C [3]: 105 % of control | T/C (dose: 25.0 mg/kg/injection, schedule: Q01DX009 (ip), vehicle: water): 111 % of control | T/C [4]: 100 % of control | T/C (dose: 50.0 mg/kg/injection, schedule: Q01DX009 (ip), vehicle: water): 106 % of control

CCOP(=O)(CS(=O)(=O)CCC1(C)NC(=O)NC1=O)OCC (centres undefined)
T/C (dose: 60.0 mg/kg/injection, schedule: Q01DX005 (ip), vehicle: saline): 101 % of control | T/C (dose: 120.0 mg/kg/injection, schedule: Q01DX005 (ip), vehicle: saline): 103 % of control | T/C (dose: 240.0 mg/kg/injection, schedule: Q01DX005 (ip), vehicle: saline): 103 % of control

CCOC(=O)NN(C(=O)OCC)C(C(C)=O)C(C)=O
T/C (dose: 60.0 mg/kg/injection, schedule: Q01DX005 (ip), vehicle: Klucel (hydroxypropylcellulose) (HPC)): 104 % of control | T/C (dose: 120.0 mg/kg/injection, schedule: Q01DX005 (ip), vehicle: Klucel (hydroxypropylcellulose) (HPC)): 101 % of control | T/C (dose: 240.0 mg/kg/injection, schedule: Q01DX005 (ip), vehicle: Klucel (hydroxypropylcellulose) (HPC)): 98 % of control

C/C=C/C=C/C1=C2C(=O)N(c3ccccc3)N=C2CC(C)O1 (centres undefined)
T/C (dose: 50.0 mg/kg/injection, schedule: Q01DX005 (ip), vehicle: Klucel (hydroxypropylcellulose) (HPC)): 100 % of control | T/C (dose: 100.0 mg/kg/injection, schedule: Q01DX005 (ip), vehicle: Klucel (hydroxypropylcellulose) (HPC)): 104 % of control

COC(=O)c1nnc2n1-c1ccc(Cl)cc1C(c1ccccc1)=[N+]([O-])C2
T/C (dose: 50.0 mg/kg/injection, schedule: Q04DX002 (ip), vehicle: saline with Tween-80): 96 % of control | T/C [1]: 104 % of control | T/C [2]: 99 % of control

O=C(Nc1ccc(Cl)c(Cl)c1)Sc1ccc(Cl)cc1
T/C [6]: 113 % of control | T/C [7]: 119 % of control | T/C (dose: 200.0 mg/kg/injection, schedule: Q01DX005 (ip), vehicle: saline with Tween-80): 112 % of control

CS/C(C#N)=C(\C#N)SC
T/C [6]: 115 % of control | T/C [7]: 113 % of control
